IC50 data for one compound are collected here from patent US20090285773A1, “Hepatitis C Virus Inhibitors” (Bristol-Myers Squibb Company, priority 2008, published 2009).

This test relates to human pancreatic chymotrypsin. The test is described as follows: Specificity assay, chymotrypsin. It is filed as biochemical. To be noted: read-out: Chymotrypsin activity in the specificity assays. The method, then: The specificities of compounds of the present disclosure were determined against a variety of serine proteases: human neutrophil elastase (HNE), porcine pancreatic elastase (PPE) and human pancreatic chymotrypsin and one cysteine protease: human liver cathepsin B. In all cases a 96-well plate format protocol using a fluorometric Amino-Methyl-Coumarin (AMC) substrate specific for each enzyme was used as described previously (PCT Patent Application No. WO 00/09543) with some modifications to the serine protease assays. All enzymes were purchased from Sigma, EMDbiosciences while the substrates were from Bachem, Sigma and EMDbiosciences.
Compound concentrations varied from 100 to 0.4 μM depending on their potency. The enzyme assays were each initiated by addition of substrate to enzyme-inhibitor pre-incubated for 10 min at room temperature and hydrolysis to 15% conversion as measured on cytofluor. […]
The percentage of inhibition was calculated using the formula: […]

`COc1ccc2c(O[C@@H]3C[C@H]4C(=O)N[C@]5(C(=O)NS(=O)(=O)C6CC6)C[C@H]5/C=C\CCCCC[C@H](Nc5ccc(OC)nc5)C(=O)N4C3)nccc2c1` (single isomer, unassigned) [Compound 1]: the IC50 worked out at 25 µM.
